Source: patent US10246498B2, “Genetically encoded histone reporter allele constructs” (THE JOHNS HOPKINS UNIVERSITY, priority 2014, dated 2019)
“Also recorded” adds a separate entry of the source.

Assays:
[1] = tested on: acetylation machinery (acetylation of H4 at K5, K8, K12, K16); experiment: H4 acetylation (H4ac) reporter allele, GFP fluorescence by FACS; assay type: cell-based; conditions: for cells easily discriminated from auto fluorescence (% positive cells), H4ac reporter: FACS
From the text: The acetyl reporter protein quantifies the activity of the acetylation machinery (acetylation of H4 specifically at the 5th, 8th, 12th and 16th Lysine's) and comprises an H4 tail on one end (the target for acetylation) and a TBP associated factor II (TAFII) bromodomain on the other end of the reporter protein (FIG. 5A). The TAFII bromodomain only recognizes and binds to the acetylated H4 tail, resulting in reconstitution of GFP structure and function (i.e. fluorescence). Therefore, the reporter protein has no fluorescence unless it is acetylated by the acetylation system of the nucleus of the cell.
(§1) Epigenetic reporter alleles were synthesized (OriGene, Rockville, Md.) using published sequences for component elements (Baird et al. (1999) Proc. Natl. Acad. Sci. 96:11241-6; Souslova et al. (2007) BMC Biotechnol. 7:37). Single nucleotide mutations were created using the QuickChange Lightening kit (Agilent Technologies Inc, Santa Clara, Calif.). For H4ac indicator, K5R, K8R, K12R, K16R and K20R (MUT indicator) were introduced. For H3K4me3 indicator, K4Q and D890A/W891A and M882A (three separate constructs) were introduced. For transient transfections, mouse embryonic fibroblasts (see below) were transfected with Fugene HD (Promega, Madison, Wis.), 48 hours prior to FACS. […] For drug stimulation, drug was added to the media 24 hours prior to FACS. For stable transfections in T293 (American Type Culture Collection) cells, 10 μg/ml of Blastocidin (Life Technologies, Carlsbad, Calif.) was added to the media for several weeks. For stable transfection in MEFs, the reporter was transferred to a ViraPower Lentiviral Expression System (Life Technologies, Carlsbad, Calif.). After selection with Blastocidin, the drug of interest was added 24 hours prior to FACS. SAHA, AR-42 and MS275 were purchased from Selleck (Selleck Chemicals, Houston, Tex.). […] FACS data were analyzed using FlowJo (Tree Star Inc, Ashland, Oreg.). A plasmid expressing HDAC3 was acquired from Addgene (Cambridge, Mass., plasmid 13819) and transfected into a stable cell line carrying the H4 acetyl reporter allele.
Epigenetic reporter systems were created that monitor either H4 acetylation or H3K4 trimethylation machinery activity in an effort to determine whether there is an ongoing activity deficiency in cells from Kmt2d^+/βGeo mice (FIG. 18A). Both reporter alleles encode halves of green fluorescent protein separated by a flexible linker region (Baird et al. (1999) Proc. Natl. Acad. Sci. 96: 11241-6) with a histone tail and a histone reader at the N- and C-termini, respectively. When the histone tail corresponding to either H4 or H3 is modified by acetylation or methylation, respectively, GFP structure and function are reconstituted, as detected by a fluorescent readout (FIG. 18B). The acetyl reporter protein quantifies the activity of the acetylation machinery (acetylation of H4 specifically at sites K5, K8, K12, and K16) and comprises an H4 tail (residues 1-30) on one end and a TATA binding protein (TBP)-associated factor II (TAFII) bromodomain on the other end (FIG. 18A). The TAFII bromodomain only recognizes and binds to the acetylated H4 tail. […] For example, only 5% of cells were easily discriminated from auto fluorescence with 1 μM of SAHA, but increased to 20% with 2.5 μM of SAHA, 40% at 7.5 μM of SAHA and 45% at 10 μM of SAHA (FIG. 18D). Saturation of this response correlates well with immunoblot data using antibodies to the modified H4 tail (Munshi et al. (2006) Mol. Cancer Ther. 5:1967-74). This response is attenuated by co-transfection with a construct encoding a histone deacetylase (FIG. 20) and absent upon mutagenesis of all potential acetylation sites (FIG. 18E and FIG. 18I), attesting to its specificity. The H3K4 trimethylation reporter allele encodes the H3 tail (residues 1-40) on one end and the TBP-associated factor III (TAF3) plant homeodomain (PHD) on the other end, which binds to trimethylated K4 on H3 (FIG. 18A). […]

[2] = tested on: H3K4 trimethylation activity in MEFs; experiment: H3K4me3 indicator in murine embryonic fibroblasts from Kmt2d+/βGeo and Kmt2d+/+ mice; assay type: cell-based, mouse; conditions: Kmt2d+/βGeo cells (MEFs)
From the text: An H3K4 trimethylation reporter was also created (FIG. 5B). This reporter is based on the H3 tail on one end and the TBP associated factor III (TAFIII) […] on the other end; the TAFIII […] only identifies and binds to trimethylated K4 on H3. When the H3K4 site gets trimethylated, the TAFIII […] can bind to the modified H3 tail and bring the two parts of the separated GFP in close proximity. The activity of the epigenetic modification system can be quantified through fluorescence.
as §1

Row | SMILES | cells easily discriminated from auto fluorescence (% positive cells), H4ac reporter ([1]; 1 μM SAHA) [%] | cells easily discriminated from auto fluorescence (% positive cells), H4ac reporter ([1]; 2.5 μM SAHA) [%] | cells easily discriminated from auto fluorescence (% positive cells), H4ac reporter ([1]; 7.5 μM SAHA) [%] | cells easily discriminated from auto fluorescence (% positive cells), H4ac reporter ([1]; 10 μM SAHA) [%] | acetylation of the indicator ([1]; FIG. 19A) | signal of the H4ac indicator ([1]; HEK293 cells stably expressing the indicator, attenuated by recombinant HDAC3) | fluorescence response of the acetylation indicator ([1]; increasing amounts of drug, culture systems) | H3K4 trimethylation activity [2]
1 | O=C(CCCCCCC(=O)Nc1ccccc1)NO [SAHA, suberoylanilide hydroxamic acid] | 5 | 20 | 40 | 45 | increases acetylation of the indicator | increased signal | linear fluorescence response; also recorded: increasing fluorescence with increasing amounts | –
2 | Nc1ccccc1NC(=O)c1ccc(CNC(=O)OCc2cccnc2)cc1 [MS275] | – | – | – | – | – | – | – | enhanced; also recorded: improved
